Tested on: 556581-035-R-J1-PDC complex spheroid viability
Experiment: Anticancer human tumor 556581-035-R-J1-PDC patient-derived ovarian carcinoma cell line growth inhibition
Conditions: for IC50: curve of first compound; for viability, T/C: stronger effect = lower value
Procedure, shortened: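 Drug combinations with the LSD1 inhibitor iadademstat tested on tumor cells co-cultured as spheroids with endothelial cells and mesenchymal stem cells. Concentrations descended in half-log increments from clinical Cmax or 10 microM.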

[1] = second compound 0.1 µM, first compound 0.0316 µM
[2] = second compound 0.1 µM, first compound 0.1 µM
[3] = second compound 0.1 µM, first compound 0.316 µM
[4] = second compound 0.1 µM, first compound 1 µM
[5] = second compound 0.1 µM, first compound 3.16 µM
[6] = second compound 0.1 µM, first compound 10 µM
[7] = second compound 0.316 µM, first compound 0.0316 µM
[8] = second compound 0.316 µM, first compound 0.1 µM
[9] = second compound 0.316 µM, first compound 0.316 µM
[10] = second compound 0.316 µM, first compound 1 µM
[11] = second compound 0.316 µM, first compound 3.16 µM
[12] = second compound 0.316 µM, first compound 10 µM
[13] = second compound 1 µM, first compound 0.0316 µM
[14] = second compound 1 µM, first compound 0.1 µM
[15] = second compound 1 µM, first compound 0.316 µM
[16] = second compound 1 µM, first compound 1 µM
[17] = second compound 1 µM, first compound 3.16 µM
[18] = second compound 1 µM, first compound 10 µM
[19] = second compound 3.16 µM, first compound 0.0316 µM
[20] = second compound 3.16 µM, first compound 0.1 µM
[21] = second compound 3.16 µM, first compound 0.316 µM
[22] = second compound 3.16 µM, first compound 1 µM
[23] = second compound 3.16 µM, first compound 3.16 µM
[24] = second compound 3.16 µM, first compound 10 µM
[25] = second compound 10 µM, first compound 0.0316 µM
[26] = second compound 10 µM, first compound 0.1 µM
[27] = second compound 10 µM, first compound 0.316 µM
[28] = second compound 10 µM, first compound 1 µM
[29] = second compound 10 µM, first compound 3.16 µM
[30] = second compound 10 µM, first compound 10 µM
[31] = second compound 0.1 µM, first compound 0.00949 µM
[32] = second compound 0.1 µM, first compound 0.03 µM
[33] = second compound 0.1 µM, first compound 0.0949 µM
[34] = second compound 0.1 µM, first compound 0.3 µM
[35] = second compound 0.316 µM, first compound 0.00949 µM
[36] = second compound 0.316 µM, first compound 0.03 µM
[37] = second compound 0.316 µM, first compound 0.0949 µM
[38] = second compound 0.316 µM, first compound 0.3 µM
[39] = second compound 1 µM, first compound 0.00949 µM
[40] = second compound 1 µM, first compound 0.03 µM
[41] = second compound 1 µM, first compound 0.0949 µM
[42] = second compound 1 µM, first compound 0.3 µM
[43] = second compound 3.16 µM, first compound 0.00949 µM
[44] = second compound 3.16 µM, first compound 0.03 µM
[45] = second compound 3.16 µM, first compound 0.0949 µM
[46] = second compound 3.16 µM, first compound 0.3 µM
[47] = second compound 10 µM, first compound 0.00949 µM
[48] = second compound 10 µM, first compound 0.03 µM
[49] = second compound 10 µM, first compound 0.0949 µM
[50] = second compound 10 µM, first compound 0.3 µM
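Also: spheroids exposed to agents for seven days.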
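For viability, T/C in this document: 100% = DMSO vehicle control wells.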

## CC1(C)CCC(CN2CCN(c3ccc(C(=O)NS(=O)(=O)c4ccc(NCC5CCOCC5)c([N+](=O)[O-])c4)c(Oc4cnc5[nH]ccc5c4)c3)CC2)=C(c2ccc(Cl)cc2)C1 + NC1CCC(NC2CC2c2ccccc2)CC1
Second compound 0.1 µM
  IC50: 4.38 µM
Second compound 0.316 µM
  IC50: 3.5 µM
Second compound 1 µM
  IC50: 4.18 µM
Second compound 3.16 µM
  IC50: 3.83 µM
Second compound 10 µM
  IC50: 2.92 µM
[1]
  viability, T/C: 80.7%
[2]
  viability, T/C: 86.4%
[3]
  viability, T/C: 80%
[4]
  viability, T/C: 82.8%
[5]
  viability, T/C: 65.8%
[6]
  viability, T/C: 9.71%
[7]
  viability, T/C: 79.9%
[8]
  viability, T/C: 93.8%
[9]
  viability, T/C: 89.5%
[10]
  viability, T/C: 84.9%
[11]
  viability, T/C: 54.1%
[12]
  viability, T/C: 7.68%
[13]
  viability, T/C: 74.2%
[14]
  viability, T/C: 90.7%
[15]
  viability, T/C: 88%
[16]
  viability, T/C: 70.8%
[17]
  viability, T/C: 64.5%
[18]
  viability, T/C: 10.5%
[19]
  viability, T/C: 79.2%
[20]
  viability, T/C: 77.1%
[21]
  viability, T/C: 77.5%
[22]
  viability, T/C: 70.6%
[23]
  viability, T/C: 58.6%
[24]
  viability, T/C: 11.8%
[25]
  viability, T/C: 75.4%
[26]
  viability, T/C: 77.3%
[27]
  viability, T/C: 73.5%
[28]
  viability, T/C: 59.9%
[29]
  viability, T/C: 52.4%
[30]
  viability, T/C: 7.8%

## CC1COCCN1c1cc(C2(S(C)(=N)=O)CC2)nc(-c2ccnc3[nH]ccc23)n1 (stereo not given) + NC1CCC(NC2CC2c2ccccc2)CC1
Second compound 0.1 µM
  IC50: > 10 µM
Second compound 0.316 µM
  IC50: > 10 µM
Second compound 1 µM
  IC50: > 10 µM
Second compound 3.16 µM
  IC50: > 10 µM
Second compound 10 µM
  IC50: 6.32 µM
[1]
  viability, T/C: 96.9%
[2]
  viability, T/C: 90.1%
[3]
  viability, T/C: 81.8%
[4]
  viability, T/C: 77.5%
[5]
  viability, T/C: 71.2%
[6]
  viability, T/C: 60.3%
[7]
  viability, T/C: 87.8%
[8]
  viability, T/C: 90.2%
[9]
  viability, T/C: 78.7%
[10]
  viability, T/C: 70%
[11]
  viability, T/C: 55.6%
[12]
  viability, T/C: 53.9%
[13]
  viability, T/C: 80%
[14]
  viability, T/C: 88.5%
[15]
  viability, T/C: 73.4%
[16]
  viability, T/C: 65.3%
[17]
  viability, T/C: 58.1%
[18]
  viability, T/C: 53.8%
[19]
  viability, T/C: 93.5%
[20]
  viability, T/C: 77.8%
[21]
  viability, T/C: 79.4%
[22]
  viability, T/C: 67.2%
[23]
  viability, T/C: 55.8%
[24]
  viability, T/C: 60.5%
[25]
  viability, T/C: 67.5%
[26]
  viability, T/C: 73.5%
[27]
  viability, T/C: 69%
[28]
  viability, T/C: 66.1%
[29]
  viability, T/C: 48%
[30]
  viability, T/C: 49.3%

## CCN(c1cc(-c2ccc(CN3CCOCC3)cc2)cc(C(=O)NCc2c(C)cc(C)[nH]c2=O)c1C)C1CCOCC1 + NC1CCC(NC2CC2c2ccccc2)CC1
Second compound 0.1 µM
  IC50: 1.69 µM
Second compound 0.316 µM
  IC50: > 3 µM
Second compound 1 µM
  IC50: 2.27 µM
Second compound 3.16 µM
  IC50: > 3 µM
Second compound 10 µM
  IC50: 1.62 µM
[31]
  viability, T/C: 89.1%
[32]
  viability, T/C: 97%
[33]
  viability, T/C: 100%
[34]
  viability, T/C: 81.3%
Second compound 0.1 µM, first compound 0.949 µM
  viability, T/C: 59.1%
Second compound 0.1 µM, first compound 3 µM
  viability, T/C: 41.7%
[35]
  viability, T/C: 84.5%
[36]
  viability, T/C: 91.7%
[37]
  viability, T/C: 93.9%
[38]
  viability, T/C: 85.6%
Second compound 0.316 µM, first compound 0.949 µM
  viability, T/C: 55%
Second compound 0.316 µM, first compound 3 µM
  viability, T/C: 50.6%
[39]
  viability, T/C: 90.7%
[40]
  viability, T/C: 93%
[41]
  viability, T/C: 88.5%
[42]
  viability, T/C: 77.3%
Second compound 1 µM, first compound 0.949 µM
  viability, T/C: 57.1%
Second compound 1 µM, first compound 3 µM
  viability, T/C: 47.7%
[43]
  viability, T/C: 91.1%
[44]
  viability, T/C: 100%
[45]
  viability, T/C: 76.1%
[46]
  viability, T/C: 69.8%
Second compound 3.16 µM, first compound 0.949 µM
  viability, T/C: 60.1%
Second compound 3.16 µM, first compound 3 µM
  viability, T/C: 49.5%
[47]
  viability, T/C: 82.8%
[48]
  viability, T/C: 88.3%
[49]
  viability, T/C: 76.5%
[50]
  viability, T/C: 70.6%
Second compound 10 µM, first compound 0.949 µM
  viability, T/C: 54%
Second compound 10 µM, first compound 3 µM
  viability, T/C: 44.9%

## Nc1ncn(C2CC(O)C(CO)S2)c(=O)n1 (stereo not given) + NC1CCC(NC2CC2c2ccccc2)CC1
Second compound 0.1 µM
  IC50: 0.0883 µM
Second compound 0.316 µM
  IC50: 0.0988 µM
Second compound 1 µM
  IC50: 0.0912 µM
Second compound 3.16 µM
  IC50: 0.0852 µM
Second compound 10 µM
  IC50: 0.0764 µM
Second compound 0.1 µM, first compound 0.000949 µM
  viability, T/C: 102%
Second compound 0.1 µM, first compound 0.003 µM
  viability, T/C: 93%
[31]
  viability, T/C: 99.5%
[32]
  viability, T/C: 69.4%
[33]
  viability, T/C: 52.4%
[34]
  viability, T/C: 41.5%
Second compound 0.316 µM, first compound 0.000949 µM
  viability, T/C: 91.5%
Second compound 0.316 µM, first compound 0.003 µM
  viability, T/C: 94.8%
[35]
  viability, T/C: 83.7%
[36]
  viability, T/C: 73%
[37]
  viability, T/C: 49.9%
[38]
  viability, T/C: 36.6%
Second compound 1 µM, first compound 0.000949 µM
  viability, T/C: 91.2%
Second compound 1 µM, first compound 0.003 µM
  viability, T/C: 93.3%
[39]
  viability, T/C: 79.6%
[40]
  viability, T/C: 67%
[41]
  viability, T/C: 49.5%
[42]
  viability, T/C: 39%
Second compound 3.16 µM, first compound 0.000949 µM
  viability, T/C: 96%
Second compound 3.16 µM, first compound 0.003 µM
  viability, T/C: 90%
[43]
  viability, T/C: 94.6%
[44]
  viability, T/C: 67.8%
[45]
  viability, T/C: 51.1%
[46]
  viability, T/C: 43.8%
Second compound 10 µM, first compound 0.000949 µM
  viability, T/C: 88.5%
Second compound 10 µM, first compound 0.003 µM
  viability, T/C: 83.2%
[47]
  viability, T/C: 71.9%
[48]
  viability, T/C: 61.1%
[49]
  viability, T/C: 46%
[50]
  viability, T/C: 42.1%
